From patent US10626089B2, “Quinoline derivative in crystal form” (GB001, Inc., priority 2016, dated 2020)
Structures can show the parent of a compound that is named as a salt.

Columns and labels:
[1] = Storage stability: total related substances by liquid chromatography before and after storage; assay type: physicochemical; settings: for total amount of related substances (produced impurities), at the start: before storage; for total amount of related substances (produced impurities), at the start / total amount of related substances (produced impurities), after 3 months: liquid chromatography, related substances measured to ≥0.03%; for total amount of related substances (produced impurities), after 3 months: tightly sealed glass vessel, relative humidity 75° C.
Description: The storage stability of the compound (I) crystal form A obtained in example 1 was compared with that of the free-form crystals obtained in comparative example 1.
The respective crystals were introduced into a glass vessel which was then tightly sealed and stored at 40° C., relative humidity […] for 3 months; the amount of related substances before and after storage was measured by liquid chromatography; the results are shown in Table 1. The values are the total amount of related substances, which are produced impurities, as measured to ≥0.03%.

[2] = Retention of water of crystallization on heated drying under reduced pressure; assay type: physicochemical; settings: 80° C.
Excerpt: Inventive crystal form B of compound (I) is a hydrate crystal form, and can be obtained using a combination of solvents that includes water. Alcohols such as ethanol and 2-propanol are preferred as the solvent used in combination with water. For example, the crystal form can be obtained by dissolving compound (I) in a mixed solvent containing ethanol and water at a ratio of 1:1 (80×volume), concentrating and then drying. The drying can comprise natural drying, drying under reduced pressure, heated drying, or heated drying under reduced pressure.

## CCc1nc2c(Cl)ccc(OCC(=O)O)c2c(OC(F)F)c1Cc1ccc(Cl)cc1 (as salt: salt) [Free-form crystals, [8-chloro-3-(4-chlorobenzyl)-4-difluoromethoxy-2-ethylquinolin-5-yloxy]acetic Acid]
other
  melting point: 141 °C

## CCc1nc2c(Cl)ccc(OCC(=O)O)c2c(OC(F)F)c1Cc1ccc(Cl)cc1.NCCCC[C@H](N)C(=O)O [Compound (I) crystal form A, [8-chloro-3-(4-chlorobenzyl)-4-difluoro-methoxy-2-ethylquinolin-5-yloxy]acetic Acid L-Lysine Salt in Crystal Form A]
[1]; 40° C., relative humidity 75, 3 months
  storage stability compared with the free-form crystals: better storage stability than the free-form crystals
[1]
  total amount of related substances (produced impurities), at the start: 0.53%
[1]; 40° C.
  total amount of related substances (produced impurities), after 3 months: 0.59%

## CCc1nc2c(Cl)ccc(OCC(=O)O)c2c(OC(F)F)c1Cc1ccc(Cl)cc1 [Free-form crystals, [8-chloro-3-(4-chlorobenzyl)-4-difluoromethoxy-2-ethylquinolin-5-yloxy]acetic Acid, reference compound]
[1]
  total amount of related substances (produced impurities), at the start: 1.37%
[1]; 40° C.
  total amount of related substances (produced impurities), after 3 months: 1.95%

## CCc1nc2c(Cl)ccc(OCC(=O)O)c2c(OC(F)F)c1Cc1ccc(Cl)cc1.NCCCC[C@H](N)C(=O)O [crystal form B of compound (I), [8-chloro-3-(4-chlorobenzyl)-4-difluoro-methoxy-2-ethylquinolin-5-yloxy]acetic Acid L-Lysine Salt in Crystal Form B]
[2]
  loss of water of crystallization: no water of crystallization is lost even at 80 °C
